Data on two compounds can be found in US20230219957A1, “SMALL MOLECULE CB002-ANALOGES RESTORE THE P53 PATHWAY AND TARGET S-PHASE CHECKPOINT” (Brown University, priority 2020, published 2023).

Common to all, as to format: cell-based, human
Assay [1] has as its system HCT116 p53 R273H. As to the kind of experiment: CellTiter-Glo (Cell-Titer glow) cytotoxicity assay. To be noted: forty-eight hours. Here is the method:
(§1) CellTiter-Glo® luminescent cell viability assay. Cells were seeded in 96-well plates at a density of 5×10^3 cells per well. 20 μL of CellTiter-Glo® Reagent was added directly to the wells, following the manufacturers protocol. The bioluminescence signal was determined using an IVIS imaging system, optionally at a period of 48-72 hours after treatment.
(§2) CB002-analog #4 is a potent anti-tumor agent in vitro and in vivo. The inventors focused on lead CB002-analog #4 and investigated its therapeutic index in vitro and in vivo. The inventors treated an isogenic HCT116 cell line panel with 100 μM CB002 or 25 μM CB002-analog #4 and established IC50 values by the Cell-Titer glow cytotoxicity assay. Across this panel, CB002-analog #4 has a 20-fold to 30-fold range in IC50 values, independently of the HCT116 p53-status.
For orientation: ATP-based viability assays read luminescence as a measure of living cells.

Assay [2] deals with HCT116 p53+/+. The experiment in a line: CellTiter-Glo (Cell-Titer glow) cytotoxicity assay. To be noted: forty-eight hours. Here is the method:
as §1, §2

Assay [3] deals with HCT116 p53−/−. The experiment in a line: CellTiter-Glo (Cell-Titer glow) cytotoxicity assay. To be noted: forty-eight hours. Here is the method:
as §1, §2

In assay [4] the test system is Noxa. The experiment in a line: Noxa protein expression by immunoblotting. To be noted: for Noxa protein induction upon knockdown of ATF3/4: SW480 cells, 100 μM CB002 or 25 μM CB002-analog #4. On the procedure: Immunoblotting. After treatment, cells were harvested by trypsinization, washed with phosphate-buffered saline, and lysed with RIPA buffer (Sigma-Aldrich) for thirty minutes to one hour at 4° C. Protein lysates were spun down. The supernatant was collected. Protein quantification was performed using a Pierce™ BCA Protein Assay Kit (Thermo Fisher Scientific, Waltham, Mass., USA). 1× NuPAGE® LDS sample buffer (Thermo Fisher Scientific, Waltham, Mass., USA) and 2-Mercaptoethanol as the reducing agent (Sigma-Aldrich) were added to protein lysates followed by boiling for fifteen minutes at 95° C. Equal total protein amounts samples were loaded into NuPAGE™ Novex™ 4-12% Bis-Tris Protein Gels (1.5 mm, Thermo Fisher Scientific, Waltham, Mass., USA). Gel electrophoresis was performed with NuPAGE™ MES SDS Running Buffer. Proteins were transferred onto an Immobilon-P membrane (PVDF, EMD Millipore, Taunton, Mass., USA) using a Bio-Rad system with a 10% Tris-Glycine and 10% methanol transfer buffer diluted in distilled and deionized water. After transfer, membranes were blocked with 10% milk in Tris-buffered saline with Tween 20 (TBST) solution. The membranes were then incubated overnight with the primary antibody, washed with TBST, and incubated with secondary antibody for one hour. Incubations were performed in 5% milk in TBST solution. Signal was detected by using a chemiluminescent detection kit, followed by autoradiography. The following antibodies were used: p53 (DO-1, 1:1000, Santa Cruz, Calif., USA), p73 (1:1000, Bethyl Laboratories), p21, and NOXA (1:250, EMD Millipore, Taunton, Mass., USA), DR5, FADD, cleaved caspase 3, cleaved caspase 8, cleaved PARP, and LC3B (1:1000, Cell Signaling Technology, Inc., Danvers, Mass. USA), and β-actin (1:10000, Sigma-Aldrich, St. Louis, Mo., USA).
Immunoblotting (additional method). […] Total protein per sample was determined using a Pierce™ BCA Protein Assay Kit (Thermo Fisher Scientific, Waltham, Mass., USA). […] Signal was detected using a chemiluminescent detection kit, followed by autoradiography. […]

Take `Cn1c(=O)c2[nH]c(Nc3cccc(C(F)(F)F)c3)nc2n(C)c1=O` [CB002-analog #4]: the IC50 in assay [1] turned out to be 8.09 µM; in assay [2], 8.69 µM; in assay [3], 8.83 µM. Besides, in assay [4], the “Noxa protein induction upon knockdown of ATF3/4” value is on record as “abrogated Noxa protein induction”.
As for `Cn1c(=O)c2[nH]c(Nc3ccccc3)nc2n(C)c1=O` [CB002], the IC50 in assay [1] (Homo sapiens, HCT-116) worked out at 140 µM; in assay [2] (Homo sapiens, HCT-116), 242 µM; in assay [3] (Homo sapiens, HCT-116), 161 µM. The Noxa expression entry in assay [4] (24 hours, DLD-1 and SW480 cells) is “induce Noxa expression”. In addition, in assay [4], the “Noxa protein induction upon knockdown of ATF3/4” value was “abrogated Noxa protein induction”.

Broadly, the IC50 is the concentration that gives 50% inhibition. Read a low IC50 as greater potency.
